This is an account of results in patent US8993509B2, “Method for treatment of cachexia by administering inhibitors of adipose triglyceride lipase expression or activity” (priority 2010, dated 2015).

In test [1] the target is T1, ATGL (Mus musculus, UniProt Q8BJ56).
T1 construct: The lipid-free infranatant (cytosolic fraction) was collected and, used for triacyl-glycerol (TG) hydrolase assays; from tissue; host or cells: mouse white adipose tissue, cytosolic fraction (100,000 g infranatant)
T1 sequence (Q8BJ56 1-486): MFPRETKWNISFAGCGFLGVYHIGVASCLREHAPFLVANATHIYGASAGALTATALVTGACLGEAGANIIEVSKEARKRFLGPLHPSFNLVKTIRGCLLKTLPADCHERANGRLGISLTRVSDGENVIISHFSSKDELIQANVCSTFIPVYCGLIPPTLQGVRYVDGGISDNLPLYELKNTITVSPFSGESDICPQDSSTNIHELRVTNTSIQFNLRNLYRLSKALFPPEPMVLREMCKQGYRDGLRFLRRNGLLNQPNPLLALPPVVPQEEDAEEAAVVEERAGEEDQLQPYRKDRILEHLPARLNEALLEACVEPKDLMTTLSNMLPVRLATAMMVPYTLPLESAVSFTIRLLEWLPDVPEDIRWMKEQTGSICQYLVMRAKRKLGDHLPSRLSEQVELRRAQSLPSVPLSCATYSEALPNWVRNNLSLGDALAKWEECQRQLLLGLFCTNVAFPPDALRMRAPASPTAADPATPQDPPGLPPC
Description: Lipase assay (triglyceride hydrolase assay) with candidate inhibitors. The settings on record: versus control (DMSO), FIG. 9. Format: biochemical. The method, then: Mesenteric, retroperitoneal, omental and, gonadal white adipose tissues (WAT) of wild-type (wt), Adipose Tri-Glyceride Lipase-knockout (ATGL-ko) and, Hormone Sensitive Lipase-knockout (HSL-ko) mice were removed surgically and, washed in phosphate-buffered saline (PBS) containing 1 mM ethylenediaminetetraacetic-acid (EDTA). The tissue was homogenized in lysis buffer (0.25 M sucrose, 1 mM EDTA, 1 mM dithiothreitol, 20 μg/ml leupeptin, 2 μg/ml antipain, 1 μg/ml pepstatin, pH 7.0) using a Magna Lyser (Roche diagnostics GmbH, Mannheim, Germany). The WAT lysate was centrifuged at 100,000 g for 1 hour (h) at 4° C. The lipid-free infranatant (cytosolic fraction) was collected and, used for triacyl-glycerol (TG) hydrolase assays. The substrate for the measurement of lipase activity containing triolein and [9, 10-3H(N)-triolein] (NEN Life Science Products, Boston, Mass.) as radioactive tracer was emulsified with phosphatidylcholine/phosphatidylinositol using a conventional ultrasound sonicator. The cytosolic fractions supplemented with or, without a specific inhibitor for HSL were incubated at 37° C. for 60 min under constant shaking. The reaction was terminated by addition of 3.25 ml methanol/chloroform/heptane (10:9:7) and, 1 ml of 0.1 M potassium carbonate and, 0.1 M boric acid (pH 10.5). After centrifugation at 800 g for 20 minutes (min) the radioactivity in 1 ml of the upper phase was determined by liquid scintillation counting in a LS 6500 Multi-Purpose Scintillation Counter from Beckman Coulter Inc. (Fullerton, Calif.).
For determination of lipase activity 0.1 ml of cytosolic extracts and 0.1 ml substrate are incubated in a water bath at 37° C. for 60 min. The reaction is terminated by adding 3.25 ml of methanol/chloroform/heptane (10:9:7) and 1 ml of 0.1 M potassium carbonate, 0.1 M boric acid, pH 10.5. After centrifugation (800 g, 20 min) the radioactivity in 1 ml of the upper phase is determined by liquid scintillation counting. Neutral lipase activity is measured in 50 mM potassium phosphate buffer, pH 7.0 and 2.5% defatted BSA. The substrate for neutral TG lipase activity contained 33 nmol triolein/assay with [9,10-^3H(N)]-triolein (40.000 cpm/nmol, NEN Life Science Products) as radioactive tracer for COS-7 cells and 167 nmol/assay for 3T3-L1 adipocytes (7300 cpm/nmol). The substrates for cholesteryl esterase and retinyl esterase activity contained 10 nmol/assay of cholesteryl oleate or retinyl palmitate and the corresponding tracers cholesteryl [9,10-^3H]-oleate or retinyl [9,10-^3H(N)]-palmitate (50.000 cpm/nmol). For determination of phospholipase activity in cytosolic extracts the substrate contained 20 nmol/assay phosphatidylcholine and [dipalmitoyl-1-^14C]-phosphatidylcholine (12.000 cpm/nmol). […]

Test [2] concerns the target T2, ATGL (Homo sapiens, UniProt Q96AD5).
T2 sequence (Q96AD5 1-504): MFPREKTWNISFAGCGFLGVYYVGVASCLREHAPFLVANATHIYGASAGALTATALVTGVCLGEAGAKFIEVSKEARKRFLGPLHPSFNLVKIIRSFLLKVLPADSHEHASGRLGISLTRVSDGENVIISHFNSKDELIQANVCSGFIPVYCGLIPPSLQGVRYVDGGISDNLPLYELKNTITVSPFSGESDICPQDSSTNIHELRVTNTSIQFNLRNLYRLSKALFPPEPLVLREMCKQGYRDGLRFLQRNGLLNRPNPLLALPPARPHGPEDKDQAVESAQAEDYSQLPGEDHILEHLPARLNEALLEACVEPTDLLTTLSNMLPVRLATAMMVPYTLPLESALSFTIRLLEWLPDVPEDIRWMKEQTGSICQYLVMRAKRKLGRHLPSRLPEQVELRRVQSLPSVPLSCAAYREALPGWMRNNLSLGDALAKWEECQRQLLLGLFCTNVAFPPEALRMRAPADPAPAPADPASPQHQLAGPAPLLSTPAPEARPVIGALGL
The conditions noted are these: expressed ATGL or native ATGL in hepatocytes; cited from earlier work.

The target of test [3] is T3, iPLA2β (Homo sapiens, UniProt O60733).
T3 sequence (O60733 1-806): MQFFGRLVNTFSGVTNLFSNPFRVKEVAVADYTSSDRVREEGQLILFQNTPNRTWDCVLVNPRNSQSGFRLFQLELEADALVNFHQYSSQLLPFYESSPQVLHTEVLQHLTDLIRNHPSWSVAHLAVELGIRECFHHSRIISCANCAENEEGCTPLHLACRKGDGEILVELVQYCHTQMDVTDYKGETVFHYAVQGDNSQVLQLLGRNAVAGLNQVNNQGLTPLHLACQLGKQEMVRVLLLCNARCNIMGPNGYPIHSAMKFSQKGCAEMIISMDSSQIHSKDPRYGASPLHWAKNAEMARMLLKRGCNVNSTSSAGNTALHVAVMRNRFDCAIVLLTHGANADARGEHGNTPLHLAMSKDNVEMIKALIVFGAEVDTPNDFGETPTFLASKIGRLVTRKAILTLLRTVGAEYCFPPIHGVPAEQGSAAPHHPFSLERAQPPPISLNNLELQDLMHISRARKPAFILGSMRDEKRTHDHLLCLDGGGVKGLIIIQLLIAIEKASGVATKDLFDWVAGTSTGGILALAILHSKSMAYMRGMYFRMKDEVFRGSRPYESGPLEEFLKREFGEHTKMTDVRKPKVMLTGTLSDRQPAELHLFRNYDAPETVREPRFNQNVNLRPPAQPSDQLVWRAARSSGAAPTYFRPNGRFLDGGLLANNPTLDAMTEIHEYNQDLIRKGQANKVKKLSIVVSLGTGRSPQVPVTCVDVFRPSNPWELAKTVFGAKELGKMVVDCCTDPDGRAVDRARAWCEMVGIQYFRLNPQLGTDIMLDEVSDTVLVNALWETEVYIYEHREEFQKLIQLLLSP
The settings on record: cited from earlier work.

The target in test [4] is T4, iPLA2γ (Homo sapiens, UniProt Q9NP80).
T4 sequence (Q9NP80 1-782): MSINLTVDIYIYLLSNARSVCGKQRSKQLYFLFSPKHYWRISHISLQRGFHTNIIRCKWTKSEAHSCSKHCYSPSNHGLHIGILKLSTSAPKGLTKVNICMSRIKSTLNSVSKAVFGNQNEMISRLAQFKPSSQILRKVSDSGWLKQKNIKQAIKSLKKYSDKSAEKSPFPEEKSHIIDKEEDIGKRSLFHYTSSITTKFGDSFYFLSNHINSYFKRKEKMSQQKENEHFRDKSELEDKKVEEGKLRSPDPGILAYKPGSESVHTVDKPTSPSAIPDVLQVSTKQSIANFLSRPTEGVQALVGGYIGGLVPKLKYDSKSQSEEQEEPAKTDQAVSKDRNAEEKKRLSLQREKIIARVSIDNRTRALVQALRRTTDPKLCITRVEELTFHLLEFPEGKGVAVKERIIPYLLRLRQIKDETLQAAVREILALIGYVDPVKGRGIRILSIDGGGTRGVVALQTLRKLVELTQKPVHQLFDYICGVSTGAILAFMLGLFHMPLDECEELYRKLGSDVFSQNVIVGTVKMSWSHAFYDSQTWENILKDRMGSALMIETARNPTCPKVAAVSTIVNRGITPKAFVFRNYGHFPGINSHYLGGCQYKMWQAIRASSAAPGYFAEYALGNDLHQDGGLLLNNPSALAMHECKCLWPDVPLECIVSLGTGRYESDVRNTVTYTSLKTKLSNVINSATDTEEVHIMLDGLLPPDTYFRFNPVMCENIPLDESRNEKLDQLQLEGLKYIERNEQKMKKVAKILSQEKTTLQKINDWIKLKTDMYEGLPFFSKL
The settings on record: cited from earlier work.

For `CCOC(=O)c1nn(-c2ccc(OCC)cc2)cc1O` [Compound 9], the “inhibition of ATGL (ATGL activity, % control)” value in test [1] is listed as “inhibit ATGL”. `Oc1ccc(/C=N/N2CCN(c3ccccc3)CC2)cc1O` [Compound 4]: the “inhibition of ATGL (ATGL activity, % control)” value in test [1] is “largest degree of inhibition”.

On to `O=C1O/C(=C/Br)CC[C@@H]1c1cccc2ccccc12` [(R)-Bromoenol lactone], for which, in test [2], the ATGL inhibition activity entry was “ATGL inhibition activity”. Moreover, the “inhibition of iPLA2β” value in test [3] was “inhibits”. In test [4], the “inhibition of iPLA2γ” value is listed as “inhibits”.

Take `COC(=O)C(O)(c1cc(C)c(O)c(C)c1)C(F)(F)F` (stereo not shown) [Compound 3]: the “inhibition of ATGL (ATGL activity, % control)” value in test [1] was “inhibit ATGL”. Take `CN(C)/N=C/c1ccccc1OC(=O)c1cccnc1` [Compound 7]: the “inhibition of ATGL (ATGL activity, % control)” value in test [1] is “inhibit ATGL”.
